Structures can show the parent of a compound that is named as a salt. Where two headings read alike, the source gives them in different places.
Columns and labels:
Acinetobacter baumannii [1] = assay: MIC, compound in combination with a second agent (broth microdilution); type: cell-based; details: 1:1 (wt:wt) combination with Rifampicin, MIC = total drug concentration
Outline: (§1)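 Read-out is the total-drug MIC of a 1:1 weight ratio combination with another agent, e.g. rifampicin. Duplicates within 2-fold gave the lower value; wider spread meant a non-valid assay. Where compounds were tested multiple times, the mode is given.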

Escherichia coli [2] = assay: as above; type: cell-based; details: 1:1 (wt:wt) combination with Rifampicin, MIC = total drug concentration
Outline: as §1

Klebsiella pneumoniae [3] = assay: as above; type: cell-based; details: 1:1 (wt:wt) combination with Rifampicin; MIC = total drug concentration; strain CCUG-59348
Outline: as §1

Pseudomonas aeruginosa [4] = assay: as above; type: cell-based; details: 1:1 (wt:wt) combination with Rifampicin, MIC = total drug concentration
Outline: as §1

Acinetobacter baumannii [5] = assay: MIC, sole activity (no second agent); type: cell-based
Outline: (§2)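 Up to four strains per species were tested in cation-adjusted Mueller-Hinton broth, with inoculum made by direct colony suspension from 18-24 hour Mueller-Hinton agar plates, adjusted to 0.5 McFarland. Duplicates differing by under 2-fold gave the lower value; greater spread voided the run. Values are relative to Polymyxin B.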

Escherichia coli [6] = assay: MIC, sole activity (no second agent); type: cell-based
Outline: as §2

Klebsiella pneumoniae [7] = assay: MIC, sole activity (no second agent); type: cell-based
Outline: as §2

Pseudomonas aeruginosa [8] = assay: MIC, sole activity (no second agent); type: cell-based
Outline: as §2

HK-2 cell line = assay: In vitro renal cell toxicity assay (resazurin reduction); type: cell-based, human
P. aeruginosa ATCC 27853 = details: ATCC 27853, in vivo, iv, 9 h
[9] = Table 6A, no second agent, different supplier of Cation-adjusted MHB

## CC(C)C[C@@H]1NC(=O)[C@@H](Cc2ccccc2)NC(=O)[C@H](CCN)NC(=O)[C@@H](NC(=O)[C@H](CCN)NC(=O)[C@@H](NC(=O)[C@H](CCN)NC(=O)CC(N)C2CCCCC2)C(C)O)CCNC(=O)[C@H](C(C)O)NC(=O)[C@H](CCN)NC(=O)[C@H](CCN)NC1=O (mixture of isomers) [Example 39, 3-(RS)-(3-Amino-3-cyclohexyl)propanoyl polymyxin B decapeptide, trifluoroacetate salt]
Acinetobacter baumannii [1]; strain ATCC BAA-747
  MIC A. baumannii ATCC BAA-747: 0.125 micrograms/mL
Acinetobacter baumannii [1]; strain CCUG57249
  MIC A. baumannii CCUG57249: ≤0.06 micrograms/mL
Acinetobacter baumannii [1]; strain NCTC 13423
  MIC A. baumannii NCTC 13423: ≤0.06 micrograms/mL
Acinetobacter baumannii [1]; strain NCTC 13424
  MIC A. baumannii NCTC 13424: 0.125 micrograms/mL
Escherichia coli [2]; strain ATCC25922
  MIC E. coli ATCC25922: ≤0.06 micrograms/mL
Escherichia coli [2]; strain NCTC9001
  MIC E. coli NCTC9001: 0.125 micrograms/mL
Klebsiella pneumoniae [3]
  MIC K. pneumoniae CCUG-59348: 1 micrograms/mL
Pseudomonas aeruginosa [4]; strain ATCC 27853
  MIC P. aeruginosa ATCC 27853: 0.125 micrograms/mL
Pseudomonas aeruginosa [4]; strain ATCC CRM-9027
  MIC P. aeruginosa ATCC CRM-9027: 0.25 micrograms/mL
Pseudomonas aeruginosa [4]; strain ATCC-47
  MIC P. aeruginosa ATCC-47: 0.125 micrograms/mL
Pseudomonas aeruginosa [4]; strain CCUG 59626
  MIC P. aeruginosa CCUG 59626: 0.125 micrograms/mL
Acinetobacter baumannii [5]; [9]
  MIC A. baumannii ATCC BAA-747: 1 micrograms/mL
  MIC A. baumannii NCTC 13424: 2 micrograms/mL
Acinetobacter baumannii [5]; in the absence of Rifampicin, strain ATCC13424
  MIC A. baumannii ATCC13424: 0.125 micrograms/mL
Acinetobacter baumannii [5]; in the absence of Rifampicin, strain ATCCBAA-747
  MIC A. baumannii ATCCBAA-747: 1 micrograms/mL
Acinetobacter baumannii [5]; in the absence of Rifampicin, strain CCUG 57249
  MIC A. baumannii CCUG57249: 1 micrograms/mL
Acinetobacter baumannii [5]; in the absence of Rifampicin, strain NCTC13423
  MIC A. baumannii NCTC 13423: 0.25 micrograms/mL
Escherichia coli [6]; [9]
  MIC E. coli ATCC25922: 2 micrograms/mL
  MIC E. coli NCTC 13441: 2 micrograms/mL
Escherichia coli [6]; in the absence of Rifampicin, strain ATCC25922
  MIC E. coli ATCC25922: 2 micrograms/mL
Escherichia coli [6]; in the absence of Rifampicin, strain NCTC9001
  MIC E. coli NCTC9001: 4 micrograms/mL
Klebsiella pneumoniae [7]; [9]
  MIC K. pneumoniae ATCC 4352: 1 micrograms/mL
  MIC K. pneumoniae ATCC BAA-2146: 2 micrograms/mL
Klebsiella pneumoniae [7]; in the absence of Rifampicin, strain ATCC 4352
  MIC K. pneumoniae ATCC 4352: 1 micrograms/mL
Klebsiella pneumoniae [7]; in the absence of Rifampicin, strain ATCC-BAA2146
  MIC K. pneumoniae ATCC-BAA2146: 32 micrograms/mL
Klebsiella pneumoniae [7]; in the absence of Rifampicin, strain CCUG-59348
  MIC K. pneumoniae CCUG-59348: >32 micrograms/mL
Pseudomonas aeruginosa [8]; [9]
  MIC P. aeruginosa ATCC 27853: 0.25 micrograms/mL
  MIC P. aeruginosa CCUG 59347: 0.5 micrograms/mL
Pseudomonas aeruginosa [8]; in the absence of Rifampicin, strain ATCC27853
  MIC P. aeruginosa ATCC 27853: 0.125 micrograms/mL
Pseudomonas aeruginosa [8]; in the absence of Rifampicin, strain ATCC-47
  MIC P. aeruginosa ATCC-47: 1 micrograms/mL
Pseudomonas aeruginosa [8]; in the absence of Rifampicin, strain ATCCCRM-9027
  MIC P. aeruginosa ATCCCRM-9027: 0.125 micrograms/mL
Pseudomonas aeruginosa [8]; in the absence of Rifampicin, strain CCUG 59626
  MIC P. aeruginosa CCUG 59626: ≤0.06 micrograms/mL
HK-2 cell line
  HK-2 IC50 rel to PMB: 1.5-2
P. aeruginosa ATCC 27853; 2 mg/kg
  Log reduction from vehicle (CFU/g): 2.56 log CFU/g
P. aeruginosa ATCC 27853; 4 mg/kg
  Log reduction from vehicle (CFU/g): 3.88 log CFU/g

Source: US10407467B2, “Polymyxin derivatives and their use in combination therapy together with different antibiotics” (priority 2013, dated 2019)
